Patent US20220347267A1, “METHODS TO IMPROVE PATIENT RESPONSE TO IMMUNE CHECKPOINT INHIBITORS AND FUNCTIONAL TESTS TO PREDICT RESPONSE” (Biomarker Strategies, LLC, priority 2019, published 2022)

Assays:
Type in all cases: cell-based, human
BT20 cells = experiment: PD-L1 western blot after modulators (EM and MTAs); details: Breast BT20, 30 minutes, 3 hours, 24 hours
From the text: (§1) Cell lines were acquired from ATCC, Sigma, or DSMZ. Human non-small cell lung carcinoma (NSCLC) cell lines H292 (ATCC no. CRL-1848.), H1299 (ATCC no. CRL-5803), H520 (ATCC no. CRL-5811), CALU6 (ATCC no. HTB-56), H1975 (ATCC no. CRL-5908), H460 (ATCC no. HTB-177), H2126 (ATCC no. CCL-256), H1650 (ATCC no. CRL-5883), and H2087 (ATCC no. CRL-5922) were used for this experiment along with head and neck squamous cell carcinoma (HNSCC) cell lines BHY (DSMZ ACC 404), CAL27 (ATCC no. CRL-2095), KYSE410 (Sigma), and A253 (ATCC no. HTB-41), melanoma cell lines A375 (ATCC no. CRL-1619), COL0853 (Sigma), and MM127 (Sigma) pancreatic cancer cell lines BXPC3 (ATCC no. CRL-1687), colorectal cancer cell lines […], HCT116 (ATCC no. CCL-247EMT), and breast cancer cell lines BT549 (ATCC no. HTB-122), BT20 (ATCC no. HTB-19), and T47D (ATCC no. HTB-133). Cells were maintained in manufacturer-recommended conditions at 37° C. inside humidified 5% CO2 incubators. Sub-cultivation and harvesting for all cell lines were performed using Accutase (GIBCO Life Technologies; cat. no. A1110501) at 37° C. for 10 minutes. Cell viability was measured using trypan blue exclusion staining in conjunction with the Countess II Automated Cell Counter (Thermo Fischer Scientific; cat. no. AMQAX1000). Measurements were made in duplicate and the average number of viable cells was recorded prior to experiments.
(§2) Enhancer Molecule and Therapies: IFNγ, (10 ng/ml; Sigma Aldrich, cat.no 11040596001), TNFα (10 ng/ml; BD Biosciences cat. no. 554618), Osimertinib (100 ng/ml; Selleckchem cat.no. S7297), Everolimus (100 ng/ml; Selleckchem cat.no S1120), GSK458 (10 ng/ml; Selleckchem cat. no. S2658), TNFb (50 ng/ml; Sigma Aldrich cat. no.), GSK795 (1,000 ng/ml; Selleckchem cat. no. S7492), IL-12 (50 ng/ml; Sigma Aldrich SRP3073), GM-CSF (50 ng/ml; Sigma Aldrich cat. no. G5035), IL-1a (1 ng/ml; Sigma Aldrich cat. no. 12778-), IL-6 (50 ng/ml; Sigma Aldrich), IL-17 (100 ng/ml; Sigma Aldrich cat. no. SRP3080), TGFb (1 ng/ml; Sigma Aldrich cat. no. T7039), and IL-10 (50 ng/ml; Sigma Aldrich cat. no. SRP3071) were administered to cell lines for various times including 30 minutes, 3 hour, and 24 hour time intervals prior to cell lysis and protein extraction.
(§3) To determine the effects of the aforementioned molecules on the modulation of PD-L1, we selected various NSCLC, HNSCC, breast cancer, melanoma, colorectal cancer, and pancreatic cancer cell lines as examples. Other diseases or cell lines could be used readily as could more complex samples such as cells isolated from xenografts and clinical samples. Cells were plated, for three different time points (30 minutes, 3 hours, and 24 hours), inside 6-well petri dishes with 2 mL of appropriate medium. Plates were incubated for 24 hours in 5% CO2 incubators at 37° C. After 24 hours, each 6-well plate was washed with PBS (Gibco Life Technologies, cat. no. 10010023) followed by fresh media being added along with each cell line's vehicle control or appropriate modulator for each specific time point, and were placed in CO2 incubators until their modulation time point was reached. Other conditions can be readily used, such as processing on automated systems such as SnapPath. At the end of each time point, while keeping plates on ice, cell lysis was conducted by aspirating culture medium from each plate, washing of each plate three times with 5 ml of cold PBS (Gibco Life Technologies, cat. no. 10010023) and culminated with the addition of cold 1× lysis buffer containing (Cell Signaling, cat. no. 9803 S) protease inhibitor cocktail (Cell Signaling, cat. no. 5871S), phosphatase inhibitor cocktail (Cell Signaling, cat. no. 5870S), and PMSF (Fisher Scientific, cat. no. ICN19538101). Plates were then placed on ice for ten minutes, swirling each plate intermittently. Aliquots of protein lysates were prepared and then stored at −80° C. until protein quantification and Western blot analysis was to be conducted. […]

BxPC3 cells = experiment: PD-L1 western blot after modulators (EM and MTAs); details: Pancreatic BxPC3, 30 minutes, 3 hours, 24 hours
From the text: as §1, §2, §3

H292 cells = experiment: PD-L1 western blot after modulators (EM and MTAs); details: NSCLC H292, 30 minutes, 3 hours, 24 hours
From the text: as §1
(§4) T7039), and IL-10 (50 ng/ml; Sigma Aldrich cat. no. SRP3071) were administered to cell lines for various times including 30 minutes, 3 hour, and 24 hour time intervals prior to cell lysis and protein extraction.
(§5) To determine the effects of the aforementioned molecules on the modulation of PD-L1, we selected various NSCLC, HNSCC, breast cancer, melanoma, colorectal cancer, and pancreatic cancer cell lines as examples. Other diseases or cell lines could be used readily as could more complex samples such as cells isolated from xenografts and clinical samples. Cells were plated, for three different time points (30 minutes, 3 hours, and 24 hours), inside 6-well petri dishes with 2 mL of appropriate medium. Plates were incubated for 24 hours in 5% CO2 incubators at 37° C. After 24 hours, each 6-well plate was washed with PBS (Gibco Life Technologies, cat. no. 10010023) followed by fresh media being added along with each cell line's vehicle control or appropriate modulator for each specific time point, and were placed in CO2 incubators until their modulation time point was reached. Other conditions can be readily used, such as processing on automated systems such as SnapPath. At the end of each time point, while keeping plates on ice, cell lysis was conducted by aspirating culture medium from each plate, washing of each plate three times with 5 ml of cold PBS (Gibco Life Technologies, cat. no. 10010023) and culminated with the addition of cold 1× lysis buffer containing (Cell Signaling, cat. no. 9803 S) protease inhibitor cocktail (Cell Signaling, cat. no. 5871S), phosphatase inhibitor cocktail (Cell Signaling, cat. no. 5870S), and PMSF (Fisher Scientific, cat. no. ICN19538101). Plates were then placed on ice for ten minutes, swirling each plate intermittently. Aliquots of protein lysates were prepared and then stored at −80° C. until protein quantification and Western blot analysis was to be conducted. The protein concentration of each lysate was analyzed by using the Pierce 660 Protein Assay Reagent (Thermo Fisher Scientific, cat. no. 22660) and testing of each sample was conducted in duplicate. Two μg of protein was then loaded per lane into 10% Midi-PROTEAN TGX Precast Gels (Bio Rad, cat. no. 5671034) along with Kaleidoscope Prestained Protein Standard (BioRad, cat. no. 1610375) which ran at 220V for 45 minutes. Proteins were transferred to mini-PVDF membranes (BioRad, cat. no. 1704156) in 3 minutes using the Trans-Blot Turbo Transfer System (BioRad, cat. no. 1704150EDU).

[1] = system: various NSCLC, HNSCC, breast cancer, melanoma, colorectal cancer, and pancreatic cancer cell lines; experiment: PD-L1 western blot after modulators, summary over all samples; details: depending on the sample, summary of Table 3
From the text: as §1, §4, §5

BHY cells = experiment: PD-L1 western blot after modulators (EM and MTAs); details: Head and neck BHY, 30 minutes, 3 hours, 24 hours
From the text: as §1, §2, §3

KYSE410 cells = experiment: PD-L1 western blot after modulators (EM and MTAs); details: Head and neck KYSE410, 30 minutes, 3 hours, 24 hours
From the text: as §1, §2, §3

H2087 cells = experiment: PD-L1 western blot after modulators (EM and MTAs); details: NSCLC H2087, 30 minutes, 3 hours, 24 hours
From the text: as §1, §2, §3

CAL27 cells = experiment: PD-L1 western blot after modulators (EM and MTAs); details: Head and neck CAL27, 30 minutes, 3 hours, 24 hours
From the text: as §1, §2, §3

H1975 cells = experiment: PD-L1 western blot after modulators (EM and MTAs); details: NSCLC H1975, 30 minutes, 3 hours, 24 hours
From the text: as §1, §2, §3

BT549 cells = experiment: PD-L1 western blot after modulators (EM and MTAs); details: Breast BT549, 30 minutes, 3 hours, 24 hours
From the text: as §1, §4, §5

H2126 cells = experiment: PD-L1 western blot after modulators (EM and MTAs); details: NSCLC H2126, 30 minutes, 3 hours, 24 hours
From the text: as §1, §2, §3

H1650 cells = experiment: PD-L1 western blot after modulators (EM and MTAs); details: NSCLC H1650, 30 minutes, 3 hours, 24 hours
From the text: as §1, §4, §5

Row | Molecule | PD-L1 Response (BT20 cells) | PD-L1 Response (H292 cells) | regulation of PD-L1 across samples [1] | PD-L1 Response (H1975 cells) | further results
1 | COc1ncc(-c2ccc3nccc(-c4ccnnc4)c3c2)cc1NS(=O)(=O)c1ccc(F)cc1F [GSK458, reference compound] | Up | Down | both up and down regulation | – | PD-L1 Response (BxPC3 cells): Up
2 | C=CC(=O)Nc1cc(Nc2nccc(-c3cn(C)c4ccccc34)n2)c(OC)cc1N(C)CCN(C)C [Osimertinib, reference compound] | – | Down | both up and down regulation | – | PD-L1 Response (BHY cells): Up; PD-L1 Response (KYSE410 cells): Up
3 | GM-CSF: enhancer molecule, 50 ng/ml; Sigma Aldrich | – | – | only led to upregulation | – | PD-L1 Response (H2087 cells): Up
4 | CO[C@H]1C[C@@H]2CC[C@@H](C)[C@@](O)(O2)C(=O)C(=O)N2CCCC[C@H]2C(=O)O[C@H]([C@H](C)C[C@@H]2CC[C@@H](OCCO)[C@H](OC)C2)CC(=O)[C@H](C)/C=C(\C)[C@@H](O)[C@@H](OC)C(=O)[C@H](C)C[C@H](C)/C=C/C=C/C=C/1C [everolimus, Everolimus] | – | Down | both up and down regulation | – | PD-L1 Response (BxPC3 cells): Up
5 | Cn1ncc(Cl)c1-c1cc(C(=O)N[C@H](CN)Cc2ccc(F)c(F)c2)oc1Cl [GSK795, reference compound] | – | – | – | Down | PD-L1 Response (BHY cells): Up; PD-L1 Response (CAL27 cells): Up; PD-L1 Response (BT549 cells): Up
6 | TGFb: enhancer molecule, 1 ng/ml; Sigma Aldrich | – | – | only led to upregulation | – | –
7 | IL12: interleukin modulator, 50 ng/ml; Sigma Aldrich (protein, UniProt P29459 23-219; P29460 23-328, looked up) Interleukin-12 subunit alpha: RNLPVATPDPGMFPCLHHSQNLLRAVSNMLQKARQTLEFYPCTSEEIDHEDITKDKTSTVEACLPLELTKNESCLNSRETSFITNGSCLASRKTSFMMALCLSSIYEDLKMYQVEFKTMNAKLLMDPKRQIFLDQNMLAVIDELMQALNFNSETVPQKSSLEEPDFYKTKIKLCILLHAFRIRAVTIDRVMSYLNAS Interleukin-12 subunit beta: IWELKKDVYVVELDWYPDAPGEMVVLTCDTPEEDGITWTLDQSSEVLGSGKTLTIQVKEFGDAGQYTCHKGGEVLSHSLLLLHKKEDGIWSTDILKDQKEPKNKTFLRCEAKNYSGRFTCWWLTTISTDLTFSVKSSRGSSDPQGVTCGAATLSAERVRGDNKEYEYSVECQEDSACPAAEESLPIEVMVDAVHKLKYENYTSSFFIRDIIKPDPPKNLQLKPLKNSRQVEVSWEYPDTWSTPHSYFSLTFCVQVQGKSKREKKDRVFTDKTSATVICRKNASISVRAQDRYYSSSWSEWASVPCS | – | – | – | Down | –
8 | IL1a: interleukin modulator, 1 ng/ml; Sigma Aldrich (protein, UniProt P01583 113-271, looked up) Interleukin-1 alpha: SAPFSFLSNVKYNFMRIIKYEFILNDALNQSIIRANDQYLTAAALHNLDEAVKFDMGAYKSSKDDAKITVILRISKTQLYVTAQDEDQPVLLKEMPEIPKTITGSETNLLFFWETHGTKNYFTSVAHPNLFIATKQDYWVCLAGGPPSITDFQILENQA | Up | Up | only led to upregulation | Up | PD-L1 Response (H2126 cells): Up; PD-L1 Response (KYSE410 cells): Up; PD-L1 Response (BT549 cells): Up; PD-L1 Response (H1650 cells): Up
9 | TNFb: enhancer molecule, 50 ng/ml; Sigma Aldrich (protein, UniProt P01374 35-205, looked up) Lymphotoxin-alpha: LPGVGLTPSAAQTARQHPKMHLAHSTLKPAAHLIGDPSKQNSLLWRANTDRAFLQDGFSLSNNSLLVPTSGIYFVYSQVVFSGKAYSPKATSSPLYLAHEVQLFSSQYPFHVPLLSSQKMVYPGLQEPWLHSMYHGAAFQLTQGDQLSTHTDGIPHLVLSPSTVFFGAFAL | Up | – | both up and down regulation | Up | PD-L1 Response (H2087 cells): Down; PD-L1 Response (H1650 cells): Up
